This series in a line: Thermal sensitivity, residual antibacterial activity. The note with it: for Residual inhibitory activity (inhibition zone diameter, mm): 15 μg/mL in 0.05% (w/v) acetic acid, agar-well diffusion vs MRSA GIM 1.771, mean ± SD, triplicate; for Residual inhibitory activity (%): 15 μg/mL in 0.05% acetic acid, vs MRSA GIM 1.771, relative to control. The series is classed as physicochemical. Here is the method:
To determine thermal sensitivity, lyophilized purified pentocin JL-1 dissolved in 0.05% (w/v) acetic acid at 15 μg/mL was evaluated at different temperatures (−20°C, 4°C, 30°C, 60°C, and 100°C) for 1 h and also at the autoclaved condition (121°C at 15 psi for 15 min).
The residual antibacterial activities of the above samples were calculated using the agar-well diffusion test with MRSA GIM 1.771 as the indicator strain. […] Lyophilized pentocin JL-1 dissolved in 0.05% (w/v) acetic acid at 15 μg/mL with pH 5.5 was used as a control in all assays.
(In general: A growth-free zone around the sample is the usual read-out of agar diffusion tests.)

[1] abbreviates: 121°C, 15 min (autoclaved, 15 psi).

The source of these data is PMC5733122, “Purification, Characterization, and Mode of Action of Pentocin JL-1, a Novel Bacteriocin Isolated from Lactobacillus pentosus, against Drug-Resistant Staphylococcus aureus” (BioMed Research International, 2017).

“VAKVAR [pentocin JL-1, novel bacteriocin produced by Lactobacillus pentosus JL-1, purified by four-step chromatography, molecular mass 2987.23 Da, cationic and hydrophobic peptide]”: the “Residual inhibitory activity (inhibition zone diameter, mm)” value was 23.8 ± 1.2 mm (4°C, 1 h); 23.9 ± 0.2 mm (30°C, 1 h); 23.6 ± 0.8 mm (60°C, 1 h); 22.6 ± 0.8 mm (100°C, 1 h); 20.1 ± 0.9 mm under setting [1]; 22.2 ± 1.0 mm (−20°C, 1 h). In addition, the “Residual inhibitory activity (%)” value is, setting by setting: (4°C, 1 h) 99.58%; (30°C, 1 h) 100.00%; (60°C, 1 h) 98.74%; under setting [1], 84.10^∗ %.
